# Values of other authors as cited in PMC11390321 (Cancer chemotherapy and pharmacology, 2024).
# Details: tumor-bearing mice, orally administered; cited from earlier work
structure (smiles),measurement,value
C[C@@H]1COCCN1c1cc(C2([S@](C)(=N)=O)CC2)nc(-c2cc[nH]c3nccc2-3)n1 [ceralasertib],bone marrow exposure relative to plasma,4.60 fold
